Reference: patent publication US7589094B2, “N- (3-amino-2-hydroxy-propyl) substituted alkylamide compounds” (Elan Pharmaceuticals, Inc., priority 2001, dated 2009)

Row | melting point | Structure (SMILES)
1 | 139.5 to 149.8 °C | CCc1cccc(CNC[C@@H](O)[C@H](Cc2cc(F)cc(F)c2)NC(=O)CC2CCCC(=O)C2)c1 (stereo partly drawn) [Compound 214, N-{(1S,2R)-1-(3,5-difluorobenzyl)-3-[(3-ethylbenzyl)amino]-2-hydroxypropyl}-2-(3-oxocyclohexyl)acetamide]
2 | 52 to 54 °C | CCCC1CCC(CC(=O)N[C@@H](Cc2cc(F)cc(F)c2)[C@H](O)CNCc2cccc(CC)c2)CC1=O (stereo partly drawn) [Compound 213, N-{(1S,2R)-1-(3,5-difluorobenzyl)-3-[(3-ethylbenzyl)amino]-2-hydroxypropyl}-2-(3-oxo-4-propylcyclohexyl)acetamide]
